According to patent publication US7312206B2, “Sterol derivatives, liposomes comprising sterol derivatives and method for loading liposomes with active substances” (Novosom AG, priority 2001, dated 2007):

Columns and labels:
HeLa cells = experiment: Cytotoxicity, MTT test; format: cell-based
Procedure: The toxic effect of the substances was investigated using the MTT test. To this end, HeLa cells were seeded at a density of 2×10^4 cells per cavity of a 96-well titer plate and cultured for two days. Liposomes of varying composition (see Table) were added to the cells at a concentration of 0.5 mM and incubated with these cells for 24 hours. Subsequently, the MTT test was performed.

[1] = Chelating of metal ions (zeta potential of liposomes); format: physicochemical; conditions: compound in the liposome membrane
Procedure: Liposomes are produced as in Example 4. 40 μl of these liposomes are suspended in 7 ml of buffer (10 mM potassium acetate, 10 mM HEPES, pH 4.2 or pH 7.5). Subsequently, the metal ions are added with the concentrations as indicated, and the zeta potential of the liposomes is measured.

CCCCCCCC/C=C\CCCCCCCC(=O)OCC(C[N+](C)(C)C)OC(=O)CCCCCCC/C=C\CCCCCCCC (stereo not shown) [DOTAP]
toxic effect in the MTT test (in words) (HeLa cells): significant cytotoxic effect

CC(C)CCC[C@@H](C)[C@H]1CC[C@H]2[C@@H]3CC=C4C[C@@H](OC(=O)NCCN(C)C)CC[C@]4(C)[C@H]3CC[C@]12C [DC-Chol, N,N-Dimethyl (2-aminoethyl) carbamoylcholesterol]
toxic effect in the MTT test (in words) (HeLa cells): significant cytotoxic effect

Histaminylethaneamine-cholesterol hemisuccinate [His-Chol]
toxic effect in the MTT test (in words) (HeLa cells): lesser toxic effects | chelating of metal ions by liposomes including the compound (in words) [1]: capable of chelating metal ions
